Measured values reported in patent publication US8492342B2, “Preprocalcitonin antigen T epitopes” (Institut Gustave Roussy, priority 2007, dated 2013).

Legend:
Format in all cases: cell-based, human
CTL clone Heu161 [1] = test: Lytic activity of CTL clone on peptide-pulsed 51Cr-labeled Heu-EBV-B cells; settings: E/T 10:1, 4 h chromium release, FIG. 3B
Protocol: (§1) FIG. 3: Identification of the antigenic peptide recognized by CTL clone Heu161. A. CTL stimulation with purified synthetic peptides. Peptides were loaded on allogeneic HLA-A2^+ MZ2-MEL.3.1 melanoma cells for 60 min at room temperature before addition of CTL clone Heu161. TNF release was measured 16 h later. Empty circles represent the results obtained with peptide SEQ ID NO: 1, full circles represent the results obtained with peptide SEQ ID NO: 2, empty squares represent the results obtained with peptide SEQ ID NO: 24, full squares represent the results obtained with peptide SEQ ID NO: 25 and empty diamonds represent the results obtained with peptide SEQ ID NO: 26. B. Lytic activity of CTL clone on peptide-pulsed cells. ^51Cr-labeled Heu-EBV-B cells were incubated over 60 min with the indicated concentrations of peptides before addition of CTL clone Heu161 at an E/T cell ratio of 10:1. Chromium release was measured after 4 h. Empty circles represent the results obtained with peptide SEQ ID NO: 1, full circles represent the results obtained with peptide SEQ ID NO: 2
Cytotoxic activity was measured by a conventional 4-h ^51Cr-release assay using triplicate cultures in round-bottomed 96-well plates. Percent specific cytotoxicity was calculated conventionally; SD were <5%. […]

CTL clone Heu161 [2] = test: CTL stimulation (TNF release) by synthetic peptides loaded on HLA-A2+ MZ2-MEL.3.1 melanoma cells
Protocol: as §1
(§2) TNFβ was detected by measuring the cytotoxicity of the culture medium on TNF-sensitive WEHI-164c13 cells with a MTT colorimetric assay (ESPEVIK & NISSEN-MEYER, J Immunol Methods, 95, 99-105, 1986).
We then prepared a series of calcitonin cDNA fragments truncated at their 5′ end and engineered to contain an initiation codon and a Kozak consensus sequence. […] Further trimming narrowed down the peptide-encoding region to residues 9-38 (FIG. 2B). Among a set of overlapping peptides covering this region, only two were recognized by CTL clone Heu161: VLLQAGSLHA (SEQ ID NO: 1) and LVLLQAGSLHA (SEQ ID NO: 2), which are identical, but with an additional leucine in the latter peptide. […] In a lysis assay, the decamer was slightly more efficient than the 11-mer peptide by a factor of about three (FIG. 3B). We concluded that the optimal antigenic peptide recognized by CTL clone Heu161 was VLLQAGSLHA (SEQ ID NO: 1) or preprocalcitonin16-25. This peptide corresponds exactly to the C-terminal part of the preprocalcitonin signal peptide (LE MOULLEC et al., FEBS Lett, 167, 93-7, 1984).

IGR-Heu tumor cells = test: Proteasome inhibition: CTL recognition (TNFβ release) of inhibitor-treated IGR-Heu tumor cells; settings: 10 μM, FIG. 4A
Protocol: FIG. 4: Processing of the preprocalcitonin16-25 peptide is proteasome- and TAP-independent. A. IGR-Heu target cells were incubated for 2 h at 37° C. in the presence or absence of the proteasome-specific inhibitor epoxomicin, and then Heu161 cells were added. The autologous Heu127 clone, recognizing on IGR-Heu a proteasome-dependent mutated α-actinin-4 peptide, was included as a positive control. TNFβ released in medium after 24 h of culture was measured as above. B. 293-EBNA cells were cotransfected with pCEP4 containing either cDNA 150 (upper panel) or the mutated α-actinin-4 cDNA (lower panel), with pcDNA3.1 containing an HLA-A*0201 construct, and with various amounts of vector pBJi-neo containing IPC47 cDNA. CTL clones Heu161 (upper panel) or Heu127 (lower panel) were then added. Controls included 293-EBNA cells transfected with HLA-A2 or pBJi-neo-IPC47 alone, and incubation of transfectants with either preprocalcitonin or α-actinin-4 peptides. Data shown are representative of four independent experiments.
as §2
For proteasomes and SP inhibition, 10^6 tumor cells were resuspended in 300 μl of media in the presence or absence of specific inhibitors. […]

VLLQAGSLHA [SEQ ID NO: 1, optimal antigenic peptide recognized by CTL clone Heu161, C-terminal part of the preprocalcitonin signal peptide]
efficiency in lysis assay, decamer relative to 11-mer (factor) (CTL clone Heu161 [1]): about three
EC50 (CTL clone Heu161 [2]; HLA-A2+ melanoma cells loaded 60 min, TNF release after 16 h, FIG. 3A, read-out: peptide concentration giving half-maximal effect (sensitization to recognition by CTL Heu161)): ~10 nM
recognition of peptide by CTL clone Heu161 (CTL clone Heu161 [2]; overlapping synthetic peptides of preprocalcitonin): recognized

CC[C@H](C)[C@H](NC(=O)[C@H]([C@@H](C)CC)N(C)C(C)=O)C(=O)N[C@H](C(=O)N[C@@H](CC(C)C)C(=O)[C@@]1(C)CO1)[C@@H](C)O [epoxomicin]
effect on recognition by anti-preprocalcitonin CTL clone Heu161 (IGR-Heu tumor cells): no effect
